What all share (assay): protein kinase blot: kinases renatured on the blot, labeling with [γ-32P]ATP
Common to all, as to assay type: biochemical

Test [1] deals with T1, ~Mr 40,000 band from sperm (Cs) (Ovis aries, UniProt Q9MZD9).
T1 construct: Samples of demembranated sperm were dissolved in SDS-PAGE sample buffer; from tissue; host or cells: ejaculated, demembranated ram sperm
The settings on record: demembranated ram sperm. The protocol: (§1) Ejaculated sperm were -collected and washed and demembranated as described in San Agustin et al., Cell Motl. Cytoskel., 24:264-73, 1993. Samples of demembranated sperm were dissolved in SDS-PAGE sample buffer (10% glycerol, 3% SDS, 0.03% bromphenol blue, 50 mM DTT, 62.5 mM Tris-HCl, pH 6.8), and then electrophoresed in a 1.5-mm thick gradient gel (5-15%, 12×14 cm). Protein kinases were renatured on the blot and incubated in the presence of [γ−^32P]ATP using a protocol adapted from Ferrell and Martin, Methods Enzymol., 200:430-35, 1991 and described in San Austin et al., Methods Cell Biol., 47:135-40, 1995. Under these condition, bound kinases phosphorylated themselves or the blocking reagent. In some experiments, 1% poly(Glu,Tyr) 4:1, a tyrosine kinase substrate, was used as blocking solution in place of 5% BSA. […] Two prominent bands at ˜Mr 40,000 and 39,000 migrated slightly faster than porcine C (41 kDa). To determine if either of these was Cs, the incubation with [γ−^32P]ATP was carried out in the presence of PKI(5-24), a potent inhibitor of C, including ram Cs, activity. […] Labeling of the other bands was not affected by PKI(5-24).

Test [2] concerns other putative kinase bands of demembranated sperm. The settings on record: demembranated ram sperm. The protocol:
as §1

The next test concerns the target porcine C (Sus scrofa, UniProt P36887). As to the method: as §1

The values below come from patent publication US6531305B1, “Sperm associated protein kinase polypeptides, corresponding nucleic acids, and methods of use” (University of Massachusetts, priority 1998, dated 2003).

On to PKI(5-24), for which the “labeling of the ~Mr 40,000 band from sperm with [γ-32P]ATP in the presence of inhibitor” value in test [1] is “completely and specifically blocked”. In test [2], the “labeling of the other bands with [γ-32P]ATP in the presence of inhibitor” value is “not affected”. Moreover, the “labeling of porcine C with [γ-32P]ATP in the presence of inhibitor” value at porcine C is “completely and specifically blocked”.
